Experimental data: ChEMBL document CHEMBL1833895, “Synthesis and biological activity of desmethoxy analogues of coruscanone A” (Bioorg Med Chem Lett, 2011)

Columns and labels:
Aspergillus fumigatus [1] = test: Antifungal activity against Aspergillus fumigatus 231 after 24 hrs by microdilution method; assay type: functional, organism-based; details: Aspergillus fumigatus, 231, 24 h
Candida parapsilosis [2] = test: Antifungal activity against Candida parapsilosis ATCC 22019 after 48 hrs by microdilution method; assay type: functional; details: Lodderomyces parapsilosis, ATCC 22019, 48 h
Candida albicans [3] = test: Antifungal activity against Candida albicans ATCC 90028 after 24 hrs by microdilution method; assay type: functional; details: ATCC 90028, 24 h
HL-60 [4] = test: Cytostatic activity against human HL60 cells at 10 umol/L after 72 hrs by XTT assay; assay type: ADME, cell-based; details: hl-60, 72 h, 10 µM
Lichtheimia corymbifera [5] = test: Antifungal activity against Absidia corymbifera 272 after 24 hrs by microdilution method; assay type: functional, organism-based; details: Lichtheimia corymbifera, 272, 24 h
Pichia kudriavzevii [6] = test: Antifungal activity against Candida krusei E28 after 24 hrs by microdilution method; assay type: functional; details: E28, 24 h
Pichia kudriavzevii [7] = test: Antifungal activity against Candida krusei ATCC 6258 after 24 hrs by microdilution method; assay type: functional; details: ATCC 6258, 24 h
Pichia kudriavzevii [8] = test: Antifungal activity against Candida krusei E28 after 48 hrs by microdilution method; assay type: functional; details: E28, 48 h
Trichosporon asahii [9] = test: Antifungal activity against Trichosporon asahii 1188 after 24 hrs by microdilution method; assay type: functional; details: Trichosporon asahii, 1188, 24 h
Candida parapsilosis [10] = test: Antifungal activity against Candida parapsilosis ATCC 22019 after 24 hrs by microdilution method; assay type: functional; details: Lodderomyces parapsilosis, ATCC 22019, 24 h
Trichosporon asahii [11] = test: Antifungal activity against Trichosporon asahii 1188 after 48 hrs by microdilution method; assay type: functional; details: Trichosporon asahii, 1188, 48 h
Nakaseomyces glabratus [12] = test: Antifungal activity against Candida glabrata 20/I after 24 hrs by microdilution method; assay type: functional
[13] = Cytostatic activity against human HeLaS3 cells at 10 umol/L after 48 hrs by XTT assay; assay type: ADME, cell-based; details: hela s3, 48 h, 10 µM
Candida albicans [14] = test: Antifungal activity against Candida albicans ATCC 90028 after 48 hrs by microdilution method; assay type: functional; details: ATCC 90028, 48 h
Aspergillus fumigatus [15] = test: Antifungal activity against Aspergillus fumigatus 231 after 48 hrs by microdilution method; assay type: functional, organism-based; details: Aspergillus fumigatus, 231, 48 h
Candida albicans [16] = test: Antifungal activity against Candida albicans ATCC 44859 after 48 hrs by microdilution method; assay type: functional; details: ATCC 44859, 48 h
Lichtheimia corymbifera [17] = test: Antifungal activity against Absidia corymbifera 272 after 48 hrs by microdilution method; assay type: functional, organism-based; details: Lichtheimia corymbifera, 272, 48 h
Pichia kudriavzevii [18] = test: Antifungal activity against Candida krusei ATCC 6258 after 48 hrs by microdilution method; assay type: functional; details: ATCC 6258, 48 h
CCRF-CEM [19] = test: Cytostatic activity against human CCRF-CEM cells at 10 umol/L after 72 hrs by XTT assay; assay type: ADME, cell-based; details: 10 µM
Clavispora lusitaniae [20] = test: Antifungal activity against Candida lusitaniae 2446/I after 48 hrs by microdilution method; assay type: functional
[21] = test system: Trichophyton mentagrophytes; test: Antifungal activity against Trichophyton mentagrophytes 445 after 72 hrs by microdilution method; assay type: functional, organism-based; details: Trichophyton mentagrophytes, 445, 72 h
HT-29 = test: Cytostatic activity against human HT-29 cells at 10 umol/L after 72 hrs by XTT assay; assay type: ADME, cell-based; details: ht-29, 72 h, 10 µM
Candida albicans [22] = test: Antifungal activity against Candida albicans ATCC 44859 after 24 hrs by microdilution method; assay type: functional; details: ATCC 44859, 24 h
[23] = Cytostatic activity against human COLO201 cells at 10 umol/L after 72 hrs by XTT assay; assay type: ADME, cell-based; details: colo 201, 72 h, 10 µM
Candida tropicalis [24] = test: Antifungal activity against Candida tropicalis 156 after 24 hrs by microdilution method; assay type: functional; details: Candida tropicalis, 156, 24 h
Clavispora lusitaniae [25] = test: Antifungal activity against Candida lusitaniae 2446/I after 24 hrs by microdilution method; assay type: functional
Nakaseomyces glabratus [26] = test: Antifungal activity against Candida glabrata 20/I after 48 hrs by microdilution method; assay type: functional
L1210 [27] = test: Cytostatic activity against mouse L1210 cells at 10 umol/L after 72 hrs by XTT assay; assay type: ADME, cell-based; details: l1210, 72 h, 10 µM
[28] = test system: Trichophyton mentagrophytes; test: Antifungal activity against Trichophyton mentagrophytes 445 after 120 hrs by microdilution method; assay type: functional, organism-based; details: Trichophyton mentagrophytes, 445, 120 h
Candida tropicalis [29] = test: Antifungal activity against Candida tropicalis 156 after 48 hrs by microdilution method; assay type: functional; details: Candida tropicalis, 156, 48 h
[30] = Cytostatic activity against human HeLaS3 cells after 48 hrs by XTT assay; assay type: ADME, cell-based; details: HeLa S3, 48 h
CCRF-CEM [31] = test: Cytostatic activity against human CCRF-CEM cells after 72 hrs by XTT assay; assay type: ADME, cell-based
[32] = Cytostatic activity against human COLO201 cells after 72 hrs by XTT assay; assay type: ADME, cell-based; details: COLO 201, 72 h
L1210 [33] = test: Cytostatic activity against mouse L1210 cells after 72 hrs by XTT assay; assay type: ADME, cell-based; details: L1210, 72 h
HL-60 [34] = test: Cytostatic activity against human HL60 cells after 72 hrs by XTT assay; assay type: ADME, cell-based; details: HL-60, 72 h

| Compound | IC80 (Aspergillus fumigatus [1]) | IC80 (Candida parapsilosis [2]) | IC80 (Candida albicans [3]) | Activity (HL-60 [4]) | IC80 (Lichtheimia corymbifera [5]) | IC80 (Pichia kudriavzevii [6]) | IC80 (Pichia kudriavzevii [7]) | IC80 (Pichia kudriavzevii [8]) | IC80 (Trichosporon asahii [9]) | IC80 (Trichosporon asahii [11]) | IC80 (Nakaseomyces glabratus [12]) | IC80 (Aspergillus fumigatus [15]) | IC80 (Candida albicans [16]) | IC80 (Lichtheimia corymbifera [17]) | IC80 [21] | IC80 (Candida albicans [22]) | IC80 (Candida tropicalis [24]) | IC80 (Nakaseomyces glabratus [26]) | IC50 [28] | IC80 (Candida tropicalis [29]) | further results |
| --- | --- | --- | --- | --- | --- | --- | --- | --- | --- | --- | --- | --- | --- | --- | --- | --- | --- | --- | --- | --- | --- |
| COc1ccc(/C=C/C=C2C(=O)C=CC2=O)cc1 | 250 µM | 250 µM | 250 µM | Non-toxic | > 500 µM | 250 µM | 250 µM | 250 µM | 250 µM | 500 µM | 250 µM | 250 µM | 250 µM | > 500 µM | 250 µM | 125 µM | 250 µM | 250 µM | 500 µM | 250 µM | IC80 (Candida parapsilosis [10]): 250 µM; Activity [13]: Non-toxic; IC80 (Candida albicans [14]): 250 µM; IC80 (Pichia kudriavzevii [18]): 250 µM; Activity (CCRF-CEM [19]): Non-toxic; IC80 (Clavispora lusitaniae [20]): 250 µM; Activity (HT-29): Non-toxic; Activity [23]: Non-toxic; IC80 (Clavispora lusitaniae [25]): 250 µM; Activity (L1210 [27]): Non-toxic |
| Cc1ccc(/C=C/C=C2C(=O)C=CC2=O)cc1 | 62.5 µM | 31.2 µM | 7.81 µM | Non-toxic | > 125 µM | 7.81 µM | 7.81 µM | 15.6 µM | 31.2 µM | > 125 µM | 31.2 µM | > 125 µM | 7.81 µM | > 125 µM | 125 µM | 3.9 µM | 7.81 µM | 31.2 µM | > 125 µM | 7.81 µM | IC50 [30]: 7.3 µM; IC80 (Candida parapsilosis [10]): 7.81 µM; IC80 (Candida albicans [14]): 7.81 µM; IC80 (Pichia kudriavzevii [18]): 15.6 µM; Activity (CCRF-CEM [19]): Non-toxic; IC80 (Clavispora lusitaniae [20]): 15.6 µM; Activity (HT-29): Non-toxic; Activity [23]: Non-toxic; IC80 (Clavispora lusitaniae [25]): 7.81 µM; Activity (L1210 [27]): Non-toxic |
| O=C1C=CC(=O)C1=C/C=C/c1ccc(Cl)cc1 | 62.5 µM | 62.5 µM | 62.5 µM | Non-toxic | > 250 µM | 62.5 µM | 62.5 µM | 62.5 µM | 62.5 µM | 125 µM | 62.5 µM | 125 µM | 62.5 µM | > 250 µM | 62.5 µM | 62.5 µM | 62.5 µM | 62.5 µM | 250 µM | 62.5 µM | IC80 (Candida parapsilosis [10]): 62.5 µM; Activity [13]: Non-toxic; IC80 (Candida albicans [14]): 62.5 µM; IC80 (Pichia kudriavzevii [18]): 62.5 µM; Activity (CCRF-CEM [19]): Non-toxic; IC80 (Clavispora lusitaniae [20]): 62.5 µM; Activity (HT-29): Non-toxic; Activity [23]: Non-toxic; IC80 (Clavispora lusitaniae [25]): 62.5 µM; Activity (L1210 [27]): Non-toxic |
| O=C1C=CC(=O)C1=Cc1ccc(Br)cc1 | 31.2 µM | 15.6 µM | 15.6 µM | Non-toxic | > 125 µM | 15.6 µM | 15.6 µM | 15.6 µM | 15.6 µM | 15.6 µM | 15.6 µM | 31.2 µM | 15.6 µM | > 125 µM | 15.6 µM | 7.81 µM | 15.6 µM | 15.6 µM | 15.6 µM | 15.6 µM | IC50 [30]: 4.9 µM; IC80 (Candida parapsilosis [10]): 15.6 µM; IC80 (Candida albicans [14]): 15.6 µM; IC80 (Pichia kudriavzevii [18]): 15.6 µM; IC80 (Clavispora lusitaniae [20]): 15.6 µM; Activity (HT-29): Non-toxic; Activity [23]: Non-toxic; IC80 (Clavispora lusitaniae [25]): 15.6 µM; IC50 (CCRF-CEM [31]): 1.8 µM; Activity (L1210 [27]): Non-toxic |
| CN(C)c1ccc(C=C2C(=O)C=CC2=O)cc1 | 15.6 µM | 7.81 µM | 31.2 µM | Non-toxic | > 125 µM | 7.81 µM | 7.81 µM | 7.81 µM | 7.81 µM | 15.6 µM | 62.5 µM | 31.2 µM | 31.2 µM | > 125 µM | 0.98 µM | 31.2 µM | 62.5 µM | > 125 µM | 0.98 µM | > 125 µM | IC80 (Candida parapsilosis [10]): 3.9 µM; Activity [13]: Non-toxic; IC80 (Candida albicans [14]): 62.5 µM; IC80 (Pichia kudriavzevii [18]): 7.81 µM; IC80 (Clavispora lusitaniae [20]): 31.2 µM; IC50 [32]: 1.3 µM; Activity (HT-29): Non-toxic; IC80 (Clavispora lusitaniae [25]): 7.81 µM; IC50 (CCRF-CEM [31]): 4.3 µM; Activity (L1210 [27]): Non-toxic |
| O=C1C=CC(=O)C1=Cc1ccco1 | 15.6 µM | 15.6 µM | 15.6 µM | Non-toxic | 250 µM | 15.6 µM | 7.81 µM | 15.6 µM | 15.6 µM | 31.2 µM | 15.6 µM | 31.2 µM | 15.6 µM | > 500 µM | 7.81 µM | 7.81 µM | 15.6 µM | 15.6 µM | 7.81 µM | 15.6 µM | IC50 [30]: 7.3 µM; IC80 (Candida parapsilosis [10]): 15.6 µM; IC80 (Candida albicans [14]): 15.6 µM; IC80 (Pichia kudriavzevii [18]): 15.6 µM; IC80 (Clavispora lusitaniae [20]): 15.6 µM; Activity (HT-29): Non-toxic; Activity [23]: Non-toxic; IC80 (Clavispora lusitaniae [25]): 15.6 µM; IC50 (CCRF-CEM [31]): 2.5 µM; Activity (L1210 [27]): Non-toxic |
| O=C1C=CC(=O)C1=Cc1ccc2ccccc2c1 | 15.6 µM | 15.6 µM | 15.6 µM | Non-toxic | 125 µM | 31.2 µM | 15.6 µM | 31.2 µM | 15.6 µM | 62.5 µM | 31.2 µM | 31.2 µM | 15.6 µM | > 125 µM | 7.81 µM | 15.6 µM | 31.2 µM | 31.2 µM | 15.6 µM | 31.2 µM | IC50 [30]: 13.5 µM; IC80 (Candida parapsilosis [10]): 15.6 µM; IC80 (Candida albicans [14]): 15.6 µM; IC80 (Pichia kudriavzevii [18]): 31.2 µM; IC80 (Clavispora lusitaniae [20]): 15.6 µM; IC50 [32]: 2.4 µM; Activity (HT-29): Non-toxic; IC80 (Clavispora lusitaniae [25]): 15.6 µM; IC50 (CCRF-CEM [31]): 3.7 µM; Activity (L1210 [27]): Non-toxic |
| COC(/C=C/c1ccccc1)=C1\C(=O)C=C(C)C1=O [CORUSCANONE A] | 31.2 µM |  |  |  | 31.2 µM | 125 µM |  | 250 µM | 0.98 µM | 7.81 µM | 125 µM | 250 µM | 3.91 µM | 250 µM | 3.91 µM | 0.98 µM | 3.91 µM | 125 µM | 7.81 µM | 7.1 µM | IC50 (L1210 [33]): 3.8 µM; IC50 (HL-60 [34]): 4.5 µM; IC50 (CCRF-CEM [31]): 3.6 µM |
